Assay results from patent publication US7173129B2, “Sulfonamide-substituted chalcone derivatives and their use to treat diseases” (Athero Genics, Inc., priority 2003, dated 2007).
Where a name gives a salt, the structure may show the parent alone.

What was measured:
[1] = system: VCAM-1; assay: In Vitro VCAM-1 Assay (TNF-α stimulated endothelial cells, cell-surface ELISA); assay type: cell-based; conditions: primary human aortic (HAEC) or pulmonary (HPAEC) endothelial cells, TNF-α 1 ng/ml, approximately 16 hours, ELISA OD 450 nm
Method: Cell Culture and compound dosing: Cultured primary human aortic (HAEC) or pulmonary (HPAEC) endothelial cells were obtained from Clonetics, Inc., and were used below passage 9. Cells were seeded in 96 well plates such that they would reach 90–95% confluency by the following day. On the following day the cells were stimulated with TNF-α (1 ng/ml) in the presence or absence of compounds dissolved in DMSO such that the final concentration of DMSO is 0.25% or less. To establish a dose curve for each compound, four concentrations in 2- to 5-fold increments were used. Cells were exposed to TNF-α and compounds for approximately 16 hours. The next day the cells were examined under microscope to score for visual signs of toxicity or cell stress.
Following 16 hr exposure to TNF-α and compound the media was discarded and the cells were washed once with Hanks Balanced Salt Solution (HBSS)/Phosphate buffered saline (PBS) (1:1). Primary antibodies against VCAM-1 (0.25 μg/ml in HBSS/PBS+5% FBS) were added and incubated for 30–60 minutes at 37° C. Cells were washed with HBSS/PBS three times, and secondary antibody Horse Radish Peroxidase (HRP)-conjugated goat anti-mouse IgG (1:500 in HBSS/PBS+5% FBS) were added and incubated for 30 minutes at 37° C. Cells were washed with HBSS/PBS four time and TMB substrate were added and incubated at room temperature in the dark until there was adequate development of blue color. The length of time of incubation was typically 5–15 minutes. 2N sulfuric acid was added to stop the color development and the data was collected by reading the absorbance on a BioRad ELISA plate reader at OD 450 nm. The results are expressed as IC50 values (the concentration (micromolar) of compound required to inhibit 50% of the maximal response of the control sample stimulated by TNF-α only).

[2] = Homo sapiens, Endothelial cell, 16 h

| melting point | IC50 [1, 2] | SMILES | IC50 [1] |
| --- | --- | --- | --- |
| 202 to 206 °C |  | COc1cc(OC)c(-c2cc3ccccc3n2C)cc1/C=C/C(=O)c1ccc(S(=O)(=O)Nc2cc(C)on2)cc1 (as salt: sodium) [Example 16, 4-{3E-[2,4-Dimethoxy-5-(1-methyl-1H-indol-2-yl)phenyl]acryloyl}-N-(5-methylisoxazol-3-yl)benzenesulfonamide sodium salt] |  |
| 160 to 170 °C |  | COc1cc(OC)c(-c2cccs2)cc1/C=C/C(=O)c1ccc(S(=O)(=O)NCC(F)(F)F)cc1 (as salt: sodium) [Example 25, 4-[3E-(2,4-Dimethoxy-5-thien-2-ylphenyl)acryloyl]-N-(2,2,2-trifluoroethyl)benzenesulfonamide sodium salt] |  |
|  | < 5 µM | COc1cc(OC)c(-c2cc3ccccc3n2C)cc1/C=C/C(=O)c1ccc(S(=O)(=O)Nc2cc(C)on2)cc1 [Example 16, 4-{3E-[2,4-Dimethoxy-5-(1-methyl-1H-indol-2-yl)phenyl]acryloyl}-N-(5-methylisoxazol-3-yl)benzenesulfonamide sodium salt] |  |
|  | < 10 µM | COc1cc(OC)c(-c2cccs2)cc1/C=C/C(=O)c1ccc(S(=O)(=O)N2CCCCC2C(=O)O)cc1 (centres unmarked) [Example 28, 1-{4-[3E-(2,4-Dimethoxy-5-thien-2-ylphenyl)acryloyl]benzenesulfonyl}piperidine-2-carboxylic acid] |  |
| 249 to 251 °C (dec.) |  | COc1cc(OC)c(-c2cc3ccccc3[nH]2)cc1/C=C/C(=O)c1ccc(S(=O)(=O)[N-]C(=O)C(C)C)cc1.[Na+] [Example 36, 4-{3E-[5-(1H-Indol-2-yl)-2,4-dimethoxyphenyl]acryloyl}-N-isobutyrylbenzenesulfonamide sodium salt] |  |
| > 250 °C |  | CCC(=O)[N-]S(=O)(=O)c1ccc(C(=O)/C=C/c2cc(-c3cc4ccccc4[nH]3)c(OC)cc2OC)cc1.[Na+] [Example 46, 4-{3E-[5-(1H-Indol-2-yl)-2,4-dimethoxyphenyl]acryloyl}-N-propionylbenzenesulfonamide sodium salt] |  |
|  | < 5 µM | CCCC(=O)NS(=O)(=O)c1ccc(C(=O)/C=C/c2cc(-c3cc4ccccc4[nH]3)c(OC)cc2OC)cc1 [Example 47, N-Butyryl-4-{3E-[5-(1H-indol-2-yl)-2,4-dimethoxyphenyl]acryl}benzenesulfonamide] |  |
|  | < 5 µM | CCCC(=O)NS(=O)(=O)c1ccc(C(=O)/C=C/c2cc(N3CCCC3)c(OC)cc2OC)cc1 [Example 48, N-Butyryl-4-[3E-(2,4-dimethoxy-5-pyrrolidin-1-ylphenyl)acryloyl]benzenesulfonamide] |  |
| 191 to 193 °C |  | CCCC(=O)[N-]S(=O)(=O)c1ccc(C(=O)/C=C/c2cc(-c3cc4ccccc4[nH]3)c(OC)cc2OC)cc1.[Na+] [Example 49, N-Butyryl-4-{3E-[5-(1H-indol-2-yl)-2,4-dimethoxyphenyl]acryloyl}benzenesulfonamide sodium salt] |  |

The remaining lines, values behind:

| SMILES | melting point | IC50 [1, 2] | IC50 [1] |
| --- | --- | --- | --- |
| COc1cc(OC)c(-c2cccs2)cc1/C=C/C(=O)c1ccc(S(=O)(=O)Nc2cc(C)on2)cc1 (as salt: sodium) [Example 2, 4-[3E-(2,4-Dimethoxy-5-thien-2-ylphenyl)acryloyl]-N-(5-methylisoxazol-3-yl)benzenesulfonamide sodium salt] | > 260 °C |  |  |
| COc1cc(OC)c(-c2cccs2)cc1/C=C/C(=O)c1ccc(S(=O)(=O)Nc2cc(C)on2)cc1 [Example 1, 4-[3E-(2,4-Dimethoxy-5-thien-2-yl-phenyl)acryloyl]-N-(5-methylisoxazol-3-yl)benzenesulfonamide] | 202 to 203 °C | < 5 µM |  |
| COc1cc(OC)c(-c2cccs2)cc1/C=C/C(=O)c1ccc(S(=O)(=O)Nc2ncccn2)cc1 [Example 3, 4-[3E-(2,4-Dimethoxy-5-thien-2-ylphenyl)acryloyl]-N-pyrimidin-2-ylbenzenesulfonamide] | 215 °C (dec.) | < 5 µM |  |
| COc1cc(OC)c(-c2cccs2)cc1/C=C/C(=O)c1ccc(S(=O)(=O)Nc2nnn[nH]2)cc1 [Example 4, 4-[3E-(2,4-Dimethoxy-5-thien-2-ylphenyl)acryloyl]-N-(1-H-tetrazol-5-yl)benzenesulfonamide] |  |  | > 10 µM |
| COc1cc(OC)c(-c2cccs2)cc1/C=C/C(=O)c1ccc(S(=O)(=O)Nc2ccccn2)cc1 [Example 5, 4-[3E-(2,4-Dimethoxy-5-thien-2-ylphenyl)acryloyl]-N-pyridin-2-ylbenzenesulfonamide] | 141 to 143 °C | < 5 µM |  |
| COc1cc(OC)c(-c2cccs2)cc1/C=C/C(=O)c1ccc(S(=O)(=O)Nc2cc[nH]n2)cc1 [Example 6, 4-[3E-(2,4-Dimethoxy-5-thien-2-ylphenyl)acryloyl]-N-(1H-pyrazol-3-yl)benzenesulfonamide] | 142 to 145 °C | < 5 µM |  |
| COc1cc(OC)c(-c2cccs2)cc1/C=C/C(=O)c1ccc(S(=O)(=O)Nc2ccon2)cc1 [Example 7, 4-[3E-(2,4-Dimethoxy-5-thien-2-ylphenyl)acryloyl]-N-isoxazol-3-ylbenzenesulfonamide] | 198 to 199 °C | < 5 µM |  |
| COc1cc(OC)c(-c2cccs2)cc1/C=C/C(=O)c1ccc(S(=O)(=O)Nc2nccs2)cc1 [Example 8, 4-[3E-(2,4-Dimethoxy-5-thien-2-ylphenyl)acryloyl]-N-thiazol-2-ylbenzenesulfonamide] | 220 to 221 °C | < 5 µM |  |
| COc1cc(OC)c(-c2cccs2)cc1/C=C/C(=O)c1ccc(S(=O)(=O)Nc2cc(C)no2)cc1 [Example 9] |  |  | < 10 µM |
| COc1cc(OC)c(-c2cccs2)cc1/C=C/C(=O)c1ccc(S(=O)(=O)Nc2ccc(Cl)cn2)cc1 [Example 10, N-(5—Chloropyridin-2-yl)-4-[3E-(2,4-dimethoxy-5-thien-2-ylphenyl)acryloyl]benzenesulfonamide] | 228 to 229 °C | < 10 µM |  |
| COc1cc(OC)c(-c2cccs2)cc1/C=C/C(=O)c1ccc(S(=O)(=O)Nc2ccc(F)cn2)cc1 [Example 11, 4-[3E-(2,4-Dimethoxy-5-thien-2-ylphenyl)acryloyl]-N-(5-fluoropyridin-2-yl)benzenesulfonamide] | 194 to 195 °C | < 5 µM |  |
| COc1cc(OC)c(-c2cc3ccccc3n2C)cc1/C=C/C(=O)c1ccc(S(=O)(=O)NCc2cccnc2)cc1 [Example 17, 4-{3E-[2,4-Dimethoxy-5-(1-methyl-1H-indol-2-yl)phenyl]acryloyl}-N-pyridin-3-ylmethy-benzenesulfonamide] |  |  | < 10 µM |
| COc1cc(OC)c(-c2cccs2)cc1/C=C/C(=O)c1ccc(S(=O)(=O)N2CCN(C)CC2)cc1 [Example 21, 3E-(2,4-Dimethoxy-5-thien-2-ylphenyl)-1-[4-(4-methylpiperazine-1-sulfonyl)phenyl]propenone] |  |  | < 10 µM |
| CCOC(=O)[N-]S(=O)(=O)c1ccc(C(=O)/C=C/c2cc(-c3cc4ccccc4[nH]3)c(OC)cc2OC)cc1.[K+] [Example 40, N-Ethoxycarbonyl-4-{3E-[5-(1H-indol-2-yl)-2,4-dimethoxyphenyl]acryloyl}benzenesulfonamide potassium salt] | 220 to 222 °C |  |  |
| CCOC(=O)NS(=O)(=O)c1ccc(C(=O)/C=C/c2cc(-c3cc4ccccc4[nH]3)c(OC)cc2OC)cc1 [Example 41, N-Ethoxycarbonyl-4-{3E-[5-(1H-indol-2-yl)-2,4-dimethoxyphenyl]acryloyl}benzenesulfonamide] |  | < 5 µM |  |
